In publication PMC11680790, “Structural and functional determination of peptide versus small molecule ligand binding at the apelin receptor” (Nature Communications, 2024):
Numbering of substitutions follows the chain as printed. pKd: −log10 of the molar value.

What was measured:
Chrom logD = assay type: physicochemical; details: chromatographic
apelin receptor = assay: DiscoveRx cAMP assay, CHO-K1 stably expressing the apelin receptor; assay type: cell-based, human; details: stably expressing CHO-K1, forskolin stimulated cAMP
Excerpt: (§1) (A) ERK1/2 and (B) eNOS in PAECs and ERK1/2 in (C) control and (D) PAH PASMcs following treatment with 0.1% serum (control), […]
(§2) measures with Tukey’s post-test for multiple comparisons. […]
(§3) difference in down-stream signalling with the endogenous ligands used in our study.
(§4) However, dynamic mass redistribution assays are a widely used (over 400 references in Pubmed) and generally accepted robust label-free technology to measure ligand-induced changes in the mass of cells and provides an integrated cellular response, comprising multiple pathways and cellular events. We believe
(§5) DMR is robust for testing the function of apelin receptor variants, particularly when combined with our radioligand binding assays. […]
(§6) recommended.’ We thank the referee for the recommendation but we were not successful in generating additional data in the apelin receptor variants with downstream signalling functional assays that we carried […]
(§7) We have tried to test the function of apelin receptor variants in a DiscoveRx cAMP assay. The figure below […]
(§8) Provided in the assay kit, CHO-K1 cells stably expressing the apelin receptor (shown in green) responded as […]
(§9) the levels of forskolin stimulated cAMP accumulation and decreasing the fluorescent signal in relative li ght units (RLU). CHO-K1 cells transiently transfected in-house with either wild-type (black), T/M89 (red), or […]

[1] = molecular target: T1, wild-type apelin receptor (Homo sapiens, UniProt P35414); assay: DiscoveRx cAMP assay, CHO-K1 transiently transfected, wild-type; assay type: cell-based
T1 construct: expressed in transfected cells; host or cells: CHO-K1 (ECACC 85051005), transient, pcDNA3.1
T1 sequence (P35414 1-380): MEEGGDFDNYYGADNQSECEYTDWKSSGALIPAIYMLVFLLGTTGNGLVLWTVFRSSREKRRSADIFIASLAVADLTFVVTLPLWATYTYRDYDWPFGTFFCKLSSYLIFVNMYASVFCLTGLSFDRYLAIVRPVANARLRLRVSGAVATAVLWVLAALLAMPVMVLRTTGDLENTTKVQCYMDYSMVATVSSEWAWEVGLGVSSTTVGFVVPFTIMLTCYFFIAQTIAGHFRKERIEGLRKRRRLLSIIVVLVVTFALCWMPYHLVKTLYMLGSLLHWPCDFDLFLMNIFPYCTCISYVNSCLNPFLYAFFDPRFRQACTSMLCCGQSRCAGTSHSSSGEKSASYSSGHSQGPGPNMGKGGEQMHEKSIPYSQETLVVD
Excerpt: (1 picture or pasted object on this page, not shown here)

T/M89 apelin receptor = assay: DiscoveRx cAMP assay, CHO-K1 transiently transfected, T/M89; assay type: cell-based, human
Excerpt: as §1, §2, §3, §4, §5, §6, §7, §8, §9

R/H168 apelin receptor = assay: DiscoveRx cAMP assay, CHO-K1 transiently transfected, R/H168; assay type: cell-based, human
Excerpt: as §1, §2, §3, §4, §5, §6, §7, §8, §9

human apelin receptor = molecular target: T2, human apelin receptor (Homo sapiens, UniProt P35414); set-up: method as in 2 sources, ref Read et al., 2016, PMID:27475715 ||| ref Read et al. Biochem Pharmacol. 2016; details: cited from earlier work
T2 sequence (P35414 1-380): T1 sequence (P35414 1-380)

anaesthetised rats = tested on: anaesthetised rats; set-up: method as in 2 sources, ref Read et al. Biochem Pharmacol 2016 ||| ref Yang et al., Circulation. 2017; details: cited from earlier work
[2] = tested on: apelin receptor in human, rat and mouse heart; set-up: method as in Read et al. Biochem Pharmacol. 2016; details: ref Read et al. Biochem Pharmacol. 2016; cited from earlier work
apelin receptor NxStaR = molecular target: T3, apelin receptor NxStaR (Homo sapiens, UniProt P35414, F214L/I224A/N112A/S298A/T207M/T87V); assay: SPR, pH dependence (Biacore 8K+), NxStaR; details: 5% DMSO, 10 °C, single determination
T3 sequence (P35414 1-380 T87V/N112A/T207M/F214L/I224A/S298A): T1 sequence (P35414 1-380) with T87V, N112A, T207M, F214L, I224A, S298A
Method: (§10) Both were equipped with a NTA sensor chip (Cytiva). […] 0.5 M EDTA pH 8.0 was injected for 60 s at 5 µL/min followed by a 60 s injection of run buffer containing 0.5 mM NiCl2. The surface was activated with a 1:1 mixture of 0.1 M NHS and 0.5 M EDC at a flow rate of 10 µL/min for 420 s. The receptors were injected at a concentration of 1 µM at 5 µL/min until a surface response of 5000 RU was achieved. The surface was equilibrated for 12 h in buffer before commencing experiments.
(§11) Compound and peptide binding was measured in pH 7.5 buffer previously described and in buffer at pH 6.0 comprising of 0.025 M MES, pH 6.0, 0.15 M NaCl, 0.02% DDM, 5% DMSO. The analyses were run in single-cycle format with four concentration points in a twofold dilution series. […] The association phase was 60 s for each concentration and the dissociation phase was 300 s. There were 4 blank cycles between compound injections.
(§12) The data were processed using Biacore T200 Evaluation Software (Version 2.0, Cytiva) and Biacore Insight Evaluation Software (Version 5.0, Cytiva). Sensorgrams were reference and blank subtracted before fitting with 1:1 binding model which accounted for drift, bulk shift and mass transport.

[3] = molecular target: T4, R/H168^4.64 variant NxStaR (Homo sapiens, UniProt P35414, F214L/I224A/N112A/R168H/S298A/T207M/T87V); assay: SPR, pH dependence (Biacore 8K+), R/H168^4.64 NxStaR; details: 5% DMSO, 10 °C, single determination
T4 sequence (P35414 1-380 T87V/N112A/R168H/T207M/F214L/I224A/S298A): T1 sequence (P35414 1-380) with T87V, N112A, R168H, T207M, F214L, I224A, S298A
Method: as §10, §11, §12

rat = tested on: rat; set-up: method as in Yang et al., Circulation. 2017; details: 21 days, rats; ref Yang et al., Circulation. 2017; cited from earlier work
[4] = ref Read et al. Biochem Pharmacol. 2016

With `CCC(CC)n1c(Cc2cccs2)nc2cc(C(=O)N[C@H](CC(=O)O)CC(C)C)ccc21` [CMF-019] the “Chrom logD” value (Chrom logD) was 3.14, the cAMP response (apelin receptor) was “reducing” and the cAMP response [1] was “did not show an observable response”. For the same compound, the cAMP response (T/M89 apelin receptor) was “did not show an observable response”, the cAMP response (R/H168 apelin receptor) was “did not show an observable response” and the “bias factor cAMP vs receptor internalisation” value (human apelin receptor; [4]) was ~ 5000. For the same compound, the “bias factor cAMP vs β-arrestin recruitment” value (human apelin receptor; [4]) was ~ 400, the “cAMP potency versus [Pyr1]apelin-13” value (human apelin receptor; [4]) was “comparable potency to [Pyr1]apelin-13” and the “bias towards G protein pathway over beta-arrestin” value (human apelin receptor; ref Read et al., 2016, PMID:27475715) was 2250. The “stroke volume and cardiac output” value (anaesthetised rats; anaesthetised rats, ref Read et al. Biochem Pharmacol 2016) was “increased stroke volume and cardiac output”, the peripheral arterial pressure (anaesthetised rats; i.v. CMF-019 potassium salt, anaesthetised rat, ref Read et al. Biochem Pharmacol 2016) was “reduced peripheral arterial pressure” and the left ventricular contractility (anaesthetised rats; i.v. CMF-019 potassium salt, anaesthetised rats, ref Read et al. Biochem Pharmacol 2016) was “dose dependent increases in left ventricular contractility”. For the same compound, the “competition for specific binding of apelin” value [2] was “competes for the specific binding of apelin”, the pKd (apelin receptor NxStaR; pH 6.0 (MES), 0.02% DDM) was 8.47 and the pKd (apelin receptor NxStaR; pH 7.5, 0.02% DDM) was 8.21. It also gave a pKd ([3]; pH 6.0 (MES), 0.02% DDM) of 7.84 and a pKd ([3]; pH 7.5, 0.02% DDM) of 7.16.

In the case of “NCLQRRCMPLHSRVPFP [ELA, endogenous peptide Elabela/Toddler]”, the systemic vasodilatation (anaesthetised rats; carotid artery catheterisation, ref Yang et al., Circulation. 2017) is given as “caused acute systemic vasodilatation” and the “blood pressure, chronic ELA treatment” value (rat) is given as “did not significantly affect systemic blood pressure”.
